In patent publication US20240270741A1 (Cogent Biosciences, Inc., priority 2023, published 2024):

What was measured:
FGFR2-WT = FGFR2-WT (Homo sapiens, UniProt P21802); assay: Phosphorylated FGFR2-WT (pFGFR2-WT) cell assay, KATOIII cells; format: cell-based; conditions: Table 4
Procedure: Phosphorylated FGFR2-WT (pFGFR2-WT) Cell Assay:
KATOIII cells were grown in the appropriate growth medium, IMDM supplemented with 20% fetal bovine serum. Cells were seeded into a 384-well at 1×10^5 cells/25 μL/well. Cells were treated with compound using three-fold serial dilutions at final concentrations ranging from 10 μM to 0.5 nM. Compound was incubated on cells for 1 hour at 37° C., 5% CO2.
Following the 1-hour incubation with compounds, cell lysates were prepared and phospho FGFR2 was measured using the HTRF Phospho-FGFR2 (TYR653/654) Detection Kits (CisBio, cat #64FGFR2Y6PEG). 8 μL of cell lysis buffer (4×) supplied with 1× Phospho and Total protein blocking reagent (CisBio, cat #64FGFR2Y6PEG, CisBio, cat #64KB1AAC) was then added to the wells. Cells were incubated with lysis buffer for 40 minutes at 4° C. under shaking conditions. Plates were centrifuged at 1500 rpm for 3 min and then 16 μL of cell lysate was transferred from the cell-culture plate to a small volume detection plate with the added premixed antibody solutions (4 μL) (CisBio, cat #64FGFR2Y6PEG). Plates were centrifuged at 1000 rpm for 1 min then incubated at 25° ° C. for 120 min, then overnight at 4° C. Plates were read on the EnVision multimode plate reader via HTRF dual wavelength detection. One hundred percent of control (POC) was determined using DMSO treated samples, and 0 POC was determined using the top concentration of a control compound. A 4-parameter logistic curve was fit to the POC values as a function of compound concentration to determine the IC50 value.

FGFR2 V564F = FGFR2 V564F (Homo sapiens, UniProt P21802, V564F); assay: FGFR mutant enzyme assay (HTRF KinEASE-TK), FGFR2 V564F; format: biochemical; conditions: Table 4
Excerpt: (§1) (Catalogue number 62TK0PEC).

FGFR2 N549H = FGFR2 N549H (Homo sapiens, UniProt P21802, N549H); assay: FGFR mutant enzyme assay (HTRF KinEASE-TK), FGFR2 N549H; format: biochemical; conditions: Table 4
Excerpt: as §1

FGFR2 = FGFR2 (Homo sapiens, UniProt P21802); assay: FGFR wild type enzyme assay (HTRF KinEASE-TK), FGFR2
FGFR2 V564I = FGFR2 V564I (Homo sapiens, UniProt P21802, V564I); assay: FGFR mutant enzyme assay (HTRF KinEASE-TK), FGFR2 V564I; format: biochemical; conditions: Table 4
Excerpt: as §1

[1] = Enz FGFR2 (nM), FGFR2 wild type enzyme assay

FGFR2, sequence (P21802 399-821 limits assumed): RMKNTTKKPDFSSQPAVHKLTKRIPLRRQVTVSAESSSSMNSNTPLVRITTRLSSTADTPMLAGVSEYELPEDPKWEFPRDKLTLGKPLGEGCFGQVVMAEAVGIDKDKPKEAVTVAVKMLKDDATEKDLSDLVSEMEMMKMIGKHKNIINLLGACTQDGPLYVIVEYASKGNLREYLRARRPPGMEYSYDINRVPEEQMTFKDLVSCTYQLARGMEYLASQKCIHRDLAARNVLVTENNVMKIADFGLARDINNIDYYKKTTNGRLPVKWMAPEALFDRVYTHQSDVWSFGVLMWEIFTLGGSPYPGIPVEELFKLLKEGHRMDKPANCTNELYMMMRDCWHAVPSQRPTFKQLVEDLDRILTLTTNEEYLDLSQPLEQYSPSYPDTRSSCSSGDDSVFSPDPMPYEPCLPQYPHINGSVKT
FGFR2 V564I, sequence (P21802 399-821 V564I limits assumed): as the sequence (P21802 399-821 limits assumed) above, with V166I counted along it
FGFR2 V564F, sequence (P21802 399-821 V564F limits assumed): as the sequence (P21802 399-821 limits assumed) above, with V166F counted along it
FGFR2 N549H, sequence (P21802 399-821 N549H limits assumed): as the sequence (P21802 399-821 limits assumed) above, with N151H counted along it
FGFR2-WT, sequence (P21802 22-821): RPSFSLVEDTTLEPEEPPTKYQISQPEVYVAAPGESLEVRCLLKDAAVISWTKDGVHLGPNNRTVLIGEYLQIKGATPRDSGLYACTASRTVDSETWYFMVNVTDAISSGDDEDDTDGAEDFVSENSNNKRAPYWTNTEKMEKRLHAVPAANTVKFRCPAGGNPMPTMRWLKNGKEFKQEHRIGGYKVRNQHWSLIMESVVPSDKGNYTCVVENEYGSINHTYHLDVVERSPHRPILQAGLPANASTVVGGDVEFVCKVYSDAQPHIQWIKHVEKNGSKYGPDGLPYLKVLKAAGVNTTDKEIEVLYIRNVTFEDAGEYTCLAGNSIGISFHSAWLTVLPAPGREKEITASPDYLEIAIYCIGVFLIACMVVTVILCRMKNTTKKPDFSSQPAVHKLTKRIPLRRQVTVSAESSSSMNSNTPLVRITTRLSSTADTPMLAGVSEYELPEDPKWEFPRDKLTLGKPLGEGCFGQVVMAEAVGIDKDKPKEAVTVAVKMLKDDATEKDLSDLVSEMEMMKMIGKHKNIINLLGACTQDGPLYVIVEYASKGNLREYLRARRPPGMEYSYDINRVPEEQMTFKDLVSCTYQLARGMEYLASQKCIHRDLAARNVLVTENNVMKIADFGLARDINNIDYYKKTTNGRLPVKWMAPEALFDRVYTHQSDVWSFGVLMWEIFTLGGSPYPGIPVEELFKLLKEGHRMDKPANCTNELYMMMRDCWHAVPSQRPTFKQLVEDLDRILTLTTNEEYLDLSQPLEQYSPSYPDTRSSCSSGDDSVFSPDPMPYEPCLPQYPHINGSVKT

Structure (SMILES)	IC50 (FGFR2; [1])	also measured
N#Cc1cnn2cc(-c3cnn([C@H]4CCCNC4)c3)cc(Sc3ccccn3)c12 [Example 1, 6-[1-[(3S)-3-Piperidyl]pyrazol-4-yl]-4-(2-pyridylsulfanyl) pyrazolo[1,5-a]pyridine-3-carbonitrile]		IC50 (FGFR2-WT): 25 nM; IC50 (FGFR2 V564F): 3 nM; IC50 (FGFR2 N549H): 1.5 nM; IC50 (FGFR2; FGFR2 Enz, Table 4): 3 nM; IC50 (FGFR2 V564I): 6 nM
CN[C@H]1CC[C@@H](n2ncc(-c3cc(Sc4ccccc4C#N)c4c(C#N)cnn4c3)c2C)CC1 [Example 117, -[(5-fluoro-2-methyl-4-pyridyl)sulfany1]-6-[5-methyl-1-(4-piperidyl)pyrazol-4-yl]pyrazolo[1,5-a]pyridine-3-carbonitrile]		IC50 (FGFR2-WT): 28 nM; IC50 (FGFR2 V564F): 0.5 nM; IC50 (FGFR2 N549H): 0.2 nM; IC50 (FGFR2; Enz FGFR2 (nM)): 0.3 nM; IC50 (FGFR2; FGFR2 Enz, Table 4): 0.3 nM; IC50 (FGFR2 V564I): 1 nM
N#Cc1cc(F)ccc1Sc1cc(-c2ccc(N3CCNC(=O)C3)nc2)cn2ncc(C#N)c12 [Example 657, 4-((2-cyano-4-fluorophenyl)thio)-6-(6-(3-oxopiperazin-1-yl)pyridin-3-yl)pyrazolo[1,5-a]pyridine-3-carbonitrile]	3 nM	
CN=S1(=O)CCC(n2cc(-c3cc(Sc4ccc(F)cc4C#N)c4c(C#N)cnn4c3)cn2)CC1 (centres unmarked) [Example 658, 4-((2-cyano-4-fluorophenyl)thio)-6-(1-(1-(methylimino)-1-oxidohexahydro-1l6-thiopyran-4-yl)-1H-pyrazol-4-yl)pyrazolo[1,5-a]pyridine-3-carbonitrile]	1.5 nM	
N#Cc1cnn2cc(-c3ccc(N4C[C@@H](O)[C@@H](O)C4)nc3)cc(Sc3ncccc3F)c12 [Example 661, 6-(6-((3R,4S)-3,4-dihydroxypyrrolidin-1-yl)pyridin-3-yl)-4-((3-fluoropyridin-2-yl)thio)pyrazolo[1,5-a]pyridine-3-carbonitrile]	2 nM	
N#Cc1cnn2cc(-c3ccc(N4CCNC(=O)C4)nc3)cc(Sc3ncccc3F)c12 [Example 662, 4-((3-fluoropyridin-2-yl)thio)-6-(6-(3-oxopiperazin-1-yl)pyridin-3-yl)pyrazolo[1,5-a]pyridine-3-carbonitrile]	2 nM	
CC(=O)NCCn1cc(-c2cc(Sc3ccccc3C#N)c3c(C#N)cnn3c2)cn1 [Example 663, N-(2-(4-(3-cyano-4-((2-cyanophenyl)thio)pyrazolo [1,5-a]pyridin-6-yl)-1H-pyrazol-1-yl)ethyl)acetamide]	2 nM	
N#Cc1ccccc1Sc1cc(-c2cnn(CC(=O)N3CCNCC3)c2)cn2ncc(C#N)c12 [Example 670, 4-((2-cyanophenyl)thio)-6-(1-(2-oxo-2-(piperazin-1-yl)ethyl)-1H-pyrazol-4-yl)pyrazolo[1,5-a]pryridine-3-carbonitrile]	1 nM	
CNC(=O)CCn1cc(-c2cc(Sc3ccccc3C#N)c3c(C#N)cnn3c2)cn1 [Example 672, 3-(4-(3-cyano-4-((2-cyanophenyl)thio)pyrazolo [1,5-a]pyridin-6-yl)-1H-pyazol-1-yl)-N-methylpropanamide]	1 nM	
N#Cc1ccccc1Sc1cc(-c2cnn(CCC(=O)N3CC[C@H](O)C3)c2)cn2ncc(C#N)c12 [Example 674, (S)-4-((2-cyanophenyl)thio)-6-(1-(3-(3-hydroxypyrrolidin-1-yl)-3-oxopropyl)-1H-pyrazol-4-yl)pyrazolo[1,5-a]pyridine-3-carbonitrile]	1 nM	
Cc1c(-c2cc(Sc3ccc(F)cc3C#N)c3c(C#N)cnn3c2)cnn1CC[C@@H](O)CO [Example 676, (R)-4-((2-cyano-4-fluorophenyl)thio)-6-(1-(3,4-dihydroxybutyl)-5-methyl-1H-pyrazol-4-yl)pyrazolo[1,5-a]pyridine-3-carbonitrile]	3 nM	
Cc1c(-c2cc(Sc3ccc(F)cc3C#N)c3c(C#N)cnn3c2)cnn1[C@H]1CC[C@H](OP(=O)(O)O)CC1 [Example 679, sodium (1r,4r)-4-(4-(3-cyano-4-((2-cyano-4-fluorophenyl)thio)pyrazolo [1,5-a]pyridin-6-yl)-5-methyl-1H-pyrazol-1-yl)cyclohexyl phosphate]	1.6 nM	
Cc1c(-c2cc(Sc3ccc(F)cc3C#N)c3c(C#N)cnn3c2)cnn1[C@H]1CC[C@H](OC(=O)[C@@H](N)C(C)C)CC1 [Example 680, (1r,4S)-4-(4-(3-cyano-4-((2-cyano-4-fluorophenyl)thio)pyrazolo [1,5-a]pyridin-6-yl)-5-methyl-1H-pyrazol-1-yl)cyclohexyl L-valinate]	1 nM	

Continued, in another order:

IC50 (FGFR2; [1])	Structure (SMILES)	also measured
0.3 nM	CC(=O)N1CCC(N(C)c2ccc(-c3cc(Sc4ccccc4C#N)c4c(C#N)cnn4c3)cn2)CC1 [Example 659, 6-(6-((1-acetylpiperidin-4-yl)(methyl)amino)pyridin-3-yl)-4-((2-cyanophenyl)thio)pyrazolo [1,5-a]pyridine-3-carbonitrile]	
1 nM	N#Cc1ccccc1Sc1cc(-c2ccc(N3C[C@@H](O)[C@@H](O)C3)nc2)cn2ncc(C#N)c12 [Example 660, 4-((2-cyanophenyl)thio)-6-(6-((3R,4S)-3,4-dihydroxypyrrolidin-1-yl)pyridin-3-yl)pyrazolo[1,5-a]pyridine-3-carbonitrile]	
0.2 nM	CC(=O)N1CCN(c2ccc(-c3cc(Sc4ccccc4C#N)c4c(C#N)cnn4c3)cn2)CC1 [Example 664, 6-(6-(4-acetylpiperazin-1-yl)pyridin-3-yl)-4-((2-cyanophenyl)thio)pyrazolo [1,5-a]pyridine-3-carbonitrile]	
1 nM	C[C@@H]1CN(c2ccc(-c3cc(Sc4ccccc4C#N)c4c(C#N)cnn4c3)cn2)C[C@H](C)O1 [Example 665, 4-((2-cyanophenyl)thio)-6-(6-((2S,6R)-2,6-dimethylmorpholino)pyridin-3-yl)pyrazolo[1,5-a]pyridine-3-carbonitrile]	
0.6 nM	Cc1c(-c2cc(Sc3ccc(F)cc3C#N)c3c(C#N)cnn3c2)cnn1C1CCOCC1 [Example 666, 4-((2-cyano-4-fluorophenyl)thio)-6-(5-methyl-1-(tetrahydro-2H-pyran-4-yl)-1H-pyrazol-4-y)pyrazolo[1,5-a]pyridine-3-carbonitrile]	
1 nM	CN1C[C@H](n2cc(-c3cc(Sc4ccccc4C#N)c4c(C#N)cnn4c3)cn2)CCC1=O [Example 667, (R)-4-((2-cyanophenyl)thio)-6-(1-(1-methyl-6-oxopiperidin-3-yl)-1H-pyrazol-4-yl)pyrazolo[1,5-a]pyridine-3-carbonitrile]	
0.4 nM	N#Cc1ccccc1Sc1cc(-c2cnn(CC[C@H](O)CO)c2)cn2ncc(C#N)c12 [Example 668, (S)-4-((2-cyanophenyl)thio)-6-(1-(3,4-dihydroxybutyl)-1H-pyrazol-4-yl)pyrazolo[1,5-a]pyridine-3-carbonitrile]	
1 nM	CN(CCO)C(=O)Cn1cc(-c2cc(Sc3ccccc3C#N)c3c(C#N)cnn3c2)cn1 [Example 669, 2-(4-(3-cyano-4-((2-cyanophenyl)thio)pyrazolo [1,5-a]pyridin-6-yl)-1H-pyrazol-1-yl)-N-(2-hydroxyethyl)-N-methylacetamide]	
0.5 nM	CN(C)C(=O)CCn1cc(-c2cc(Sc3ccccc3C#N)c3c(C#N)cnn3c2)cn1 [Example 671, 3-(4-(3-cyano-4-((2-cyanophenyl)thio)pyrazolo [1,5-a]pyridin-6-yl)-1H-pyrazol-1-yl)-N,N-dimethylpropanamide]	
0.2 nM	N#Cc1ccccc1Sc1cc(-c2cnn(CCC(=O)N3CC[C@@H](O)C3)c2)cn2ncc(C#N)c12 [Example 673, (R)-4-((2-cyanophenyl)thio)-6-(1-(3-(3-hydroxypyrrolidin-1-yl)-3-oxopropyl)-1H-pyrazol-4-yl)pyrazolo[1,5-a]pyridine-3-carbonitrile]	
0.6 nM	N#Cc1ccccc1Sc1cc(-c2cnn(CCC(=O)N3CCNCC3)c2)cn2ncc(C#N)c12 [Example 675, 4-((2-cyanophenyl)thio)-6-(1-(3-oxo-3-(piperazin-1-yl)propyl)-1H-pyrazol-4-yl)pyrazolo[1,5-a]pyridine-3-carbonitrile]	
0.3 nM	C[C@H](O)CN1CC[C@H](n2cc(-c3cc(Sc4ccccc4C#N)c4c(C#N)cnn4c3)cn2)C1 [Example 677, 4-((2-cyanophenyl)thio)-6-(1-((S)-1-((S)-2-hydroxypropyl)pyrrolidin-3-yl)-1H-pyrazol-4-y)pyrazolo[1,5-a]pyridine-3-carbonitrile]	
0.4 nM	C[C@@H](O)CN1CC[C@H](n2cc(-c3cc(Sc4ccccc4C#N)c4c(C#N)cnn4c3)cn2)C1 [Example 678, 4-((2-cyanophenyl)thio)-6-(1-((S)-1-((R)-2-hydroxypropyl)pyrrolidin-3-yl)-1H-pyrazol-4-yl)pyrazolo[1,5-a]pyridine-3-carbonitrile]	
